Patent US20230159453A1 (COCRYSTAL PHARMA, INC., priority 2020, published 2023)
pIC50: −log10 of the molar value.

These compounds were tested against SARS2 protease (Severe acute respiratory syndrome coronavirus 2, UniProt P0DTD1) (assay: SARS-CoV-2 protease inhibition assay (SARS2 FRET protease assay)). Conditions: SARS-CoV-2 protease 25 nM, FRET, peptide substrate 1.3 μM, 30 minutes at 30° C., compounds 20 μM to 1.0 nM; read-out: IC50.
Type: biochemical
`CCCC1CCC(OC(=O)N[C@@H](CC(C)C)C(=O)NC(C=O)CC2CC3(CCN(C(C)=O)CC3)NC2=O)CC1` (stereo partly drawn) [Compound C77, 4-Propylcyclohexyl ((2S)-1-((1-(8-acetyl-2-oxo-1,8-diazaspiro[4.5]decan-3-yl)-3-oxopropan-2-yl)amino)-4-methyl-1-oxopentan-2-yl)carbamate] gave a pIC50 of 6.22. Work on `CC(C)(C)C(=O)N1CCC2(CC1)CC(CC(C=O)NC(=O)[C@H](CC1CCCCC1)NC(=O)OC1CCCC1Cc1cccc(Cl)c1)C(=O)N2` (stereo partly drawn) [Compound C202, 2-(3-Chlorobenzyl) cyclopentyl ((2S)-3-cyclohexyl-1-oxo-1-((1-oxo-3-(2-oxo-8-pivaloyl-1,8-diazaspiro[4.5]decan-3-yl)propan-2-yl)amino)propan-2-yl)carbamate] yielded a pIC50 of 6.19. Work on `CCOP(=O)(OCC)C(O)C(CC1CC2(CCN(C(C)=O)CC2)NC1=O)NC(=O)[C@H](CC(C)C)NC(=O)OCC(C)(C)c1cccc(Cl)c1` (stereo partly drawn) [Compound C84, 2-(3-Chlorophenyl)-2-methylpropyl ((2S)-1-((3-(8-acetyl-2-oxo-1,8-diazaspiro[4.5]decan-3-yl)-1-(diethoxyphosphoryl)-1-hydroxypropan-2-yl)amino)-4-methyl-1-oxopentan-2-yl)carbamate] yielded a pIC50 of 5.04. Compound `CC(C)(c1cccc(Cl)c1)C(OC(=O)N[C@@H](CC1CCCCC1)C(=O)N[C@@H](C[C@@H]1CCNC1=O)C(=O)C(=O)O)c1ccc2ccccc2c1` (stereo partly drawn) [Compound C235, (3S)-3-((2S)-2-(((2-(3-Chlorophenyl)-2-methyl-1-(naphthalen-2-yl)propoxy)carbonyl)amino)-3-cyclohexylpropanamido)-2-oxo-4-((S)-2-oxopyrrolidin-3-yl)butanoic acid] has a pIC50 of 7.15. Work on `CC(C)C[C@H](NC(=O)OC(Cc1cccc(Cl)c1)c1cccc(Cl)c1)C(=O)N[C@H](C=O)C[C@@H]1CCNC1=O` (stereo partly drawn) [Compound C282, 1,2-Bis(3-chlorophenyl)ethyl ((S)-4-methyl-1-oxo-1-(((S)-1-oxo-3-((S)-2-oxopyrrolidin-3-yl)propan-2-yl)amino)pentan-2-yl)carbamate] yielded a pIC50 of 7.40. With `CC(=O)N1CCC2(CC1)CC(CC(C=O)NC(=O)[C@H](CC(C)C)NC(=O)OCC(C)(C)c1cccc(Cl)c1)C(=O)N2` (stereo partly drawn) [Compound C70, 2-(3-Chlorophenyl)-2-methylpropyl ((2S)-1-((1-(8-acetyl-2-oxo-1,8-diazaspiro[4.5]decan-3-yl)-3-oxopropan-2-yl)amino)-4-methyl-1-oxopentan-2-yl)carbamate] the pIC50 was 7.00. For `NC(=O)C(=O)C(CC1CC2(CCCCC2)NC1=O)NC(=O)[C@H](CC1CCCCC1)NC(=O)c1cc2ccccc2[nH]1` (stereo partly drawn) [Compound C119, N-((2S)-1-((4-amino-3,4-dioxo-1-(2-oxo-1-azaspiro[4.5]decan-3-yl)butan-2-yl)amino)-3-cyclohexyl-1-oxopropan-2-yl)-1H-indole-2-carboxamide], the pIC50 was 6.10. `CC(C)C[C@H](NC(=O)OC(c1ccccc1)C(C)(C)c1cccc(Cl)c1)C(=O)N[C@@H](C[C@@H]1CCNC1=O)C(=O)CCl` (stereo partly drawn) [Compound C209, 2-(3-Chlorophenyl)-2-methyl-1-phenylpropyl ((S)-1-(((S)-4-chloro-3-oxo-1-((S)-2-oxopyrrolidin-3-yl)butan-2-yl)amino)-4-methyl-1-oxopentan-2-yl)carbamate] gave a pIC50 of 5.73. `CC(C)C[C@H](NC(=O)OCC(C)(C)c1cccc(Cl)c1)C(=O)NC(C)(C=O)CC1CCNC1=O` (stereo partly drawn) [Compound C83, 2-(3-Chlorophenyl)-2-methylpropyl ((2S)-4-methyl-1-((2-methyl-1-oxo-3-(2-oxopyrrolidin-3-yl)propan-2-yl)amino)-1-oxopentan-2-yl) carbamate] showed a pIC50 of 5.89. Work on `CC(C)C[C@H](NC(=O)OC1CCCC1Cc1ccccc1)C(=O)N[C@@H](C[C@@H]1CCNC1=O)C(=O)C(N)=O` (stereo partly drawn) [Compound C240, 2-Benzylcyclopentyl ((S)-1-(((S)-4-amino-3,4-dioxo-1-((S)-2-oxopyrrolidin-3-yl)butan-2-yl)amino)-4-methyl-1-oxopentan-2-yl)carbamate] yielded a pIC50 of 6.64. Compound `CC(C)(C)OC(=O)N1CCN(C(=O)CC[C@@H](C=O)NC(=O)[C@H](CC2CCCCC2)NC(=O)OCc2cccc(Cl)c2)CC1c1ccccc1` (stereo partly drawn) [Compound C20, tert-butyl 4-((S)-4-((S)-2-((((3-chlorobenzyl)oxy)carbonyl)amino)-3-cyclohexylpropanamido)-5-oxopentanoyl)-2-phenylpiperazine-1-carboxylate] has a pIC50 of under 3.70. `CC(C)C[C@H](NC(=O)OC(C)Cc1ccccc1)C(=O)N[C@H](C=O)C[C@@H]1CCNC1=O` (stereo partly drawn) [Compound C39, 1-Phenylpropan-2-yl ((S)-4-methyl-1-oxo-1-(((S)-1-oxo-3-((S)-2-oxopyrrolidin-3-yl)propan-2-yl)amino)pentan-2-yl)carbamate] gave a pIC50 of 6.82. `CC(C)C[C@H](NC(=O)OC(C)Cc1ccccc1)C(=O)N[C@@H](C[C@@H]1CCNC1=O)C(O)S(=O)(=O)O` (stereo partly drawn) [Compound C50, (2S)-1-Hydroxy-2-((2S)-4-methyl-2-((((1-phenylpropan-2-yl)oxy)carbonyl)amino)pentanamido)-3-((S)-2-oxopyrrolidin-3-yl)propane-1-sulfonate] showed a pIC50 of 6.92. For `CC(=O)N1CC2(CC(CC(C=O)NC(=O)[C@H](CC(C)C)NC(=O)OCc3cccc(Cl)c3)C(=O)N2)C1` (stereo partly drawn) [Compound C102, 3-chlorobenzyl ((2S)-1-((1-(2-acetyl-6-oxo-2,5-diazaspiro[3.4]octan-7-yl)-3-oxopropan-2-yl)amino)-4-methyl-1-oxopentan-2-yl)carbamate], the pIC50 was 6.93. `O=C(N[C@@H](CC1CCCCC1)C(=O)N[C@@H](C[C@@H]1CC2(CCCC2)NC1=O)C(=O)C(=O)NC1CC1)OC1CCCC1Cc1cccc(Cl)c1` (stereo partly drawn) [Compound C159, 2-(3-Chlorobenzyl)cyclopentyl ((2S)-3-cyclohexyl-1-((4-(cyclopropylamino)-3,4-dioxo-1-(2-oxo-1-azaspiro[4.4]nonan-3-yl)butan-2-yl)amino)-1-oxopropan-2-yl)carbamate] gave a pIC50 of 5.46. For `O=C(N[C@@H](CC1CCCCC1)C(=O)N[C@@H](C[C@@H]1CCNC1=O)C(=O)C(=O)NC1CC1)OC1CCCC1Cc1cccc(Cl)c1` (stereo partly drawn) [Compound C151, 2-(3-Chlorobenzyl)cyclopentyl ((S)-3-cyclohexyl-1-(((S)-4-(cyclopropylamino)-3,4-dioxo-1-((S)-2-oxopyrrolidin-3-yl)butan-2-yl)amino)-1-oxopropan-2-yl)carbamate], the pIC50 was 5.44. With `CN(C(=O)CC[C@@H](C=O)NC(=O)[C@H](CC1CCCCC1)NC(=O)OCc1cccc(Cl)c1)C1(Cc2ccccc2)CC1` [Compound C17, 3-Chlorobenzyl ((S)-1-(((S)-5-((1-benzylcyclopropyl)(methyl)amino)-1,5-dioxopentan-2-yl)amino)-3-cyclohexyl-1-oxopropan-2-yl)carbamate] the pIC50 was 5.57. Compound `COc1cccc(CC2(OC(=O)N[C@@H](CC(C)C)C(=O)N[C@@H](C[C@@H]3CCNC3=O)C(=O)C(N)=O)CC2)c1` [Compound C93, 1-(3-Methoxybenzyl) cyclopropyl ((S)-1-(((S)-4-amino-3,4-dioxo-1-((S)-2-oxopyrrolidin-3-yl)butan-2-yl)amino)-4-methyl-1-oxopentan-2-yl) carbamate] has a pIC50 of under 4.70.
